According to patent US20250127825A1, “PROBIOTIC COMPOSITIONS AND METHODS OF USE THEREOF FOR WEIGHT LOSS” (priority 2023, published 2025):

System: C. elegans worms
Assay: Nile Red lipid staining of worm intestine after 48 hours on experimental diet, non-obesogenic setting
Type: in vivo
Details: for Normalized Nile Red fluorescence, Mean / Normalized Nile Red fluorescence, Median: divided by mean fluorescence of standard diet; for Mean Diff. of fluorescence, Standard E. coli Diet vs. Orlistat / Mean Diff. of fluorescence, Orlistat vs. UF1 100 mg/ml / Mean Diff. of fluorescence, Orlistat vs. UF1 OD7 / Mean Diff. of fluorescence, Standard E. coli Diet vs. UF1 100 mg/ml / Mean Diff. of fluorescence, Standard E. coli Diet vs. UF1 OD7: Holm-Šidák's multiple comparisons test; for Nile Red fluorescence intensity, Mean / Nile Red fluorescence intensity, Median: 48 hours, non-obesogenic; for reduced fat levels compared to the Orlistat control / reduced fat levels compared to the standard E. coli OP50 control diet: reduction
Procedure: In this example the weight loss potential of the UF1 probiotic strain was studied. The UF1 probiotic strain was tested in a non-obesogenic setting by measuring the amount of internal fat in UF1-treated worms compared to no treatment controls. Orlistat treatment was also included as a positive control for fat reduction.
Methodology—Worms were raised to the L4 larval stage using standard plate culture methods. The L4 larvae were then loaded into a microfluidic chip and fed a diet of live E. coli OP50 (20 mg/ml) in liquid nematode growth media (NGM). After 24 hours on the chip, the media for each experimental cohort was switched to the experimental diet. The animals were maintained on each experimental diet for 48 hours before being fixed and stained with Nile Red—a fluorescent dye that binds lipids. A fluorescent microscopy system was then used to image the brightness of the lipid staining in the intestine of the worms, which correlates to the levels of fat in each animal.
Nile Red gives off fluorescence when illuminated with green light. The brightness of the intestinal saining in each worm per trial was quantified. This allows the measurement of the natural variability in fat levels across individuals. ANOVA was then used to determine if the distributions across treatment conditions were statistically different to one another.
All datasets were combined by normalizing the data in each trial by dividing it by the mean fluorescence value of the standard diet. In the combined data, the UF1 diets reduced fat levels compared to the standard E. coli OP50 control diet by approximately 47% and 46%, respectively. The subjects also had reduced fat levels compared to the Orlistat control by approximately 38% and 37%, respectively.

[1] = All trials combined, Orlistat 6 μg/ml
[2] = Trial 1, live OP50 20 mg/ml + Orlistat 6 μg/ml
[3] = Trial 2, live OP50 20 mg/ml + Orlistat 6 μg/ml
[4] = Trial 3, live OP50 20 mg/ml + Orlistat 6 μg/ml
[5] = All trials combined, UF1 100 mg/ml diet
[6] = All trials combined, UF1 OD7 diet
[7] = All trials combined, normalized, UF1 100 mg/ml diet
[8] = All trials combined, normalized, UF1 OD7 diet
[9] = All trials combined, Holm-Šídák's multiple comparisons test
[10] = Combined data, UF1 100 mg/ml diet
[11] = Trial 1, UF1 100 mg/ml diet, mean fluorescence
[12] = Trial 1, UF1 OD7 diet, mean fluorescence
[13] = Trial 2, UF1 100 mg/ml diet, mean fluorescence
[14] = Trial 2, UF1 OD7 diet, mean fluorescence
[15] = Trial 3, UF1 100 mg/ml diet, mean fluorescence

CCCCCCCCCCC[C@@H](C[C@@H]1OC(=O)[C@H]1CCCCCC)OC(=O)[C@H](CC(C)C)NC=O [Orlistat, reference compound]
Normalized Nile Red fluorescence, Mean [1]: 0.8579
Normalized Nile Red fluorescence, Median [1]: 0.8801
Percentage Change from Standard Diet (All trials combined, normalized, Orlistat 6 μg/ml): −14.21%
Mean Diff. of normalized fluorescence, Standard E. coli Diet vs. Orlistat (All trials combined, Holm-Šídák's multiple comparisons test, Orlistat 6 μg/ml): 0.1421
Mean Diff. of fluorescence, Standard E. coli Diet vs. Orlistat (Trial 1, Orlistat 6 μg/ml): 628190
Nile Red fluorescence intensity, Mean [2]: 10354899
Nile Red fluorescence intensity, Median [2]: 10198510
Percentage Change from Standard Diet (Trial 1, live OP50 20 mg/ml + Orlistat 6 μg/ml, mean fluorescence): −5.72%
Mean Diff. of fluorescence, Standard E. coli Diet vs. Orlistat (Trial 2, Orlistat 6 μg/ml): 1621884
Nile Red fluorescence intensity, Mean [3]: 9011934
Nile Red fluorescence intensity, Median [3]: 8938493
Percentage Change from Standard Diet (Trial 2, live OP50 20 mg/ml + Orlistat 6 μg/ml, mean fluorescence): −15.25%
Mean Diff. of fluorescence, Standard E. coli Diet vs. Orlistat (Trial 3, Orlistat 6 μg/ml): 9789069
Nile Red fluorescence intensity, Mean [4]: 28212711
Nile Red fluorescence intensity, Median [4]: 23127648
Percentage Change from Standard Diet (Trial 3, live OP50 20 mg/ml + Orlistat 6 μg/ml, mean fluorescence): −25.76%

Propionibacterium freudenreichii UF1
Normalized Nile Red fluorescence, Mean [5]: 0.5321
Normalized Nile Red fluorescence, Median [5]: 0.5247
Normalized Nile Red fluorescence, Mean [6]: 0.5417
Normalized Nile Red fluorescence, Median [6]: 0.5207
Percentage Change from Orlistat [7]: −37.98%
Percentage Change from Standard Diet [7]: −46.79%
Percentage Change from Orlistat [8]: −36.86%
Percentage Change from Standard Diet [8]: −45.83%
Mean Diff. of normalized fluorescence, Orlistat vs. UF1 100 mg/ml [9]: 0.3259
Mean Diff. of normalized fluorescence, Orlistat vs. UF1 OD7 [9]: 0.3162
Mean Diff. of normalized fluorescence, Standard E. coli Diet vs. UF1 100 mg/ml [9]: 0.4679
Mean Diff. of normalized fluorescence, Standard E. coli Diet vs. UF1 OD7 [9]: 0.4583
reduced fat levels compared to the Orlistat control [10]: approximately 38%
reduced fat levels compared to the standard E. coli OP50 control diet [10]: approximately 47%
reduced fat levels compared to the Orlistat control (Combined data, UF1 OD7 diet): ~37%
reduced fat levels compared to the standard E. coli OP50 control diet (Combined data, UF1 OD7 diet): ~46%
Mean Diff. of fluorescence, Orlistat vs. UF1 100 mg/ml (Trial 1): 5160787
Mean Diff. of fluorescence, Orlistat vs. UF1 OD7 (Trial 1): 5293675
Mean Diff. of fluorescence, Standard E. coli Diet vs. UF1 100 mg/ml (Trial 1): 5788977
Mean Diff. of fluorescence, Standard E. coli Diet vs. UF1 OD7 (Trial 1): 5921865
less fat than the Orlistat control (Trial 1, UF1 100 mg/ml diet): approximately 50%
Nile Red fluorescence intensity, Mean (Trial 1, UF1 100 mg/ml diet): 5194112
Nile Red fluorescence intensity, Median (Trial 1, UF1 100 mg/ml diet): 5124444
Percentage Change from Orlistat [11]: −49.84%
Percentage Change from Standard Diet [11]: −52.71%
reduced fat levels compared to the standard E. coli OP50 control diet (Trial 1, UF1 100 mg/ml diet): approximately 53%
less fat than the Orlistat control (Trial 1, UF1 OD7 diet): ~51%
Nile Red fluorescence intensity, Mean (Trial 1, UF1 OD7 diet): 5061224
Nile Red fluorescence intensity, Median (Trial 1, UF1 OD7 diet): 5147920
Percentage Change from Orlistat [12]: −51.12%
Percentage Change from Standard Diet [12]: −53.92%
reduced fat levels compared to the standard E. coli OP50 control diet (Trial 1, UF1 OD7 diet): ~54%
Mean Diff. of fluorescence, Orlistat vs. UF1 100 mg/ml (Trial 2): 1399524
Mean Diff. of fluorescence, Orlistat vs. UF1 OD7 (Trial 2): 2435073
Mean Diff. of fluorescence, Standard E. coli Diet vs. UF1 100 mg/ml (Trial 2): 3021408
Mean Diff. of fluorescence, Standard E. coli Diet vs. UF1 OD7 (Trial 2): 4056957
less fat than the Orlistat control (Trial 2, UF1 100 mg/ml diet): approximately 16%
Nile Red fluorescence intensity, Mean (Trial 2, UF1 100 mg/ml diet): 7612410
Nile Red fluorescence intensity, Median (Trial 2, UF1 100 mg/ml diet): 7441676
Percentage Change from Orlistat [13]: −15.53%
Percentage Change from Standard Diet [13]: −28.41%
reduced fat levels compared to the standard E. coli OP50 control diet (Trial 2, UF1 100 mg/ml diet): approximately 28%
less fat than the Orlistat control (Trial 2, UF1 OD7 diet): ~27%
Nile Red fluorescence intensity, Mean (Trial 2, UF1 OD7 diet): 6576861
Nile Red fluorescence intensity, Median (Trial 2, UF1 OD7 diet): 6691779
Percentage Change from Orlistat [14]: −27.02%
Percentage Change from Standard Diet [14]: −38.15%
reduced fat levels compared to the standard E. coli OP50 control diet (Trial 2, UF1 OD7 diet): ~38%
Mean Diff. of fluorescence, Orlistat vs. UF1 100 mg/ml (Trial 3): 9045435
Mean Diff. of fluorescence, Standard E. coli Diet vs. UF1 100 mg/ml (Trial 3): 18834504
less fat than the Orlistat control (Trial 3, UF1 100 mg/ml diet): approximately 32%
Nile Red fluorescence intensity, Mean (Trial 3, UF1 100 mg/ml diet): 19167276
Nile Red fluorescence intensity, Median (Trial 3, UF1 100 mg/ml diet): 20425415
Percentage Change from Orlistat [15]: −32.06%
Percentage Change from Standard Diet [15]: −49.56%
reduced fat levels compared to the standard E. coli OP50 control diet (Trial 3, UF1 diets (UF1 100 mg/ml)): approximately 50%
reduction in fat level compared with Orlistat (UF1 diets, conclusion in words): stronger reduction in fat level than the anti-obesity drug Orlistat
levels of fat in the intestines of C. elegans worms (non-obesogenic conditions, conclusion in words): reduced the levels of fat
